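Values below derive from 48-hour exposures of cells grown in 96-well plates, with endpoints linearly interpolated between the two concentrations bracketing the appropriate inhibition level. GI50: concentration for 50% inhibition of growth.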 The source made the active and inactive calls. No stated cut-off is given here; in the data, active = GI50 up to about 1.1 µM and inactive = higher.
What was measured:
Assay in all cases: growth of human tumour cells (NCI), 48 h
786-0 = test system: 786-0
A498 = test system: A498
A549 = test system: A549
ACHN = test system: ACHN
BT-549 = test system: BT-549
CAKI-1 = test system: CAKI-1
CCRF-CEM = test system: CCRF-CEM
COLO 205 = test system: COLO 205
DU-145 = test system: DU-145
EKVX = test system: EKVX
HCC 2998 = test system: HCC 2998
HCT-116 = test system: HCT-116
HCT-15 = test system: HCT-15
HL-60 = test system: HL-60
HOP-62 = test system: HOP-62
HT-29 = test system: HT-29
Hs-578T = test system: Hs-578T
IGROV-1 = test system: IGROV-1
K562 = test system: K562
KM12 = test system: KM12
LOX IMVI = test system: LOX IMVI
M14 = test system: M14
MCF7 = test system: MCF7
MDA-MB-231 = test system: MDA-MB-231
MDA-MB-435 = test system: MDA-MB-435
MDA-N = test system: MDA-N
MOLT-4 = test system: MOLT-4
Malme-3M = test system: Malme-3M
NCI-H226 = test system: NCI-H226
NCI-H23 = test system: NCI-H23
NCI-H460 = test system: NCI-H460
NCI-H522 = test system: NCI-H522
NCI/ADR-RES = test system: NCI/ADR-RES
OVCAR-3 = test system: OVCAR-3
OVCAR-5 = test system: OVCAR-5
OVCAR-8 = test system: OVCAR-8
PC-3 = test system: PC-3
RPMI-8226 = test system: RPMI-8226
RXF 393 = test system: RXF 393
SF-268 = test system: SF-268
SF-295 = test system: SF-295
SF-539 = test system: SF-539
SK-MEL-28 = test system: SK-MEL-28
SK-MEL-2 = test system: SK-MEL-2
SK-MEL-5 = test system: SK-MEL-5
SK-OV-3 = test system: SK-OV-3
SN12C = test system: SN12C
SNB-19 = test system: SNB-19
SNB-75 = test system: SNB-75
SR = test system: SR
SW-620 = test system: SW-620
T47D = test system: T47D
TK-10 = test system: TK-10
U-251 = test system: U-251
UACC-257 = test system: UACC-257
UACC-62 = test system: UACC-62
UO-31 = test system: UO-31
HOP-92 = test system: HOP-92
OVCAR-4 = test system: OVCAR-4

**Q.** Which results are given for `COc1ccc2cc(CNCCCCCCNCc3ccc4cc(OC)ccc4c3)ccc2c1`?
**A.** GI50 (786-0): 0.902 µM (active); GI50 (A498): 1.58 µM (inactive); GI50 (A549): 1.86 µM (inactive); GI50 (ACHN): 1.57 µM (inactive); GI50 (BT-549): 1.72 µM (inactive); GI50 (CAKI-1): 1.38 µM (inactive); GI50 (CCRF-CEM): 0.153 µM (active); GI50 (COLO 205): 0.154 µM (active); GI50 (DU-145): 1.58 µM (inactive); GI50 (EKVX): 1.39 µM (inactive); GI50 (HCC 2998): 0.132 µM (active); GI50 (HCT-116): 0.176 µM (active); GI50 (HCT-15): 0.406 µM; GI50 (HL-60): 0.181 µM (active); GI50 (HOP-62): 1.64 µM (inactive); GI50 (HT-29): 0.186 µM (active); GI50 (Hs-578T): 1.75 µM (inactive); GI50 (IGROV-1): 1.57 µM (inactive); GI50 (K562): 0.0897 µM (active); GI50 (KM12): 0.221 µM (active); GI50 (LOX IMVI): 0.181 µM (active); GI50 (M14): 0.169 µM (active); GI50 (MCF7): 0.319 µM (active); GI50 (MDA-MB-231): 0.465 µM (active); GI50 (MDA-MB-435): 0.204 µM (active); GI50 (MDA-N): 0.183 µM (active); GI50 (MOLT-4): 0.205 µM (active); GI50 (Malme-3M): 1.05 µM (active); GI50 (NCI-H226): 1.8 µM (inactive); GI50 (NCI-H23): 2.11 µM (inactive); GI50 (NCI-H460): 0.255 µM (active); GI50 (NCI-H522): 0.64 µM (active); GI50 (NCI/ADR-RES): 1.44 µM (inactive); GI50 (OVCAR-3): 0.575 µM (active); GI50 (OVCAR-5): 0.885 µM (active); GI50 (OVCAR-8): 0.531 µM (active); GI50 (PC-3): 0.471 µM (active); GI50 (RPMI-8226): 0.208 µM (active); GI50 (RXF 393): 1.52 µM (inactive); GI50 (SF-268): 0.565 µM (active); GI50 (SF-295): 0.486 µM (active); GI50 (SF-539): 1.51 µM (inactive); GI50 (SK-MEL-28): 0.471 µM (active); GI50 (SK-MEL-2): 1.24 µM (inactive); GI50 (SK-MEL-5): 1.33 µM (inactive); GI50 (SK-OV-3): 1.85 µM (inactive); GI50 (SN12C): 1.33 µM (inactive); GI50 (SNB-19): 0.785 µM (active); GI50 (SNB-75): 0.815 µM (active); GI50 (SR): 0.184 µM (active); GI50 (SW-620): 0.182 µM (active); GI50 (T47D): 0.452 µM (active); GI50 (TK-10): 1.8 µM (inactive); GI50 (U-251): 0.231 µM (active); GI50 (UACC-257): 1.83 µM (inactive); GI50 (UACC-62): 1.46 µM (inactive); GI50 (UO-31): 1.63 µM (inactive)

**Q.** Which results are given for `CN(C)/C=N/CC(O)c1ccccc1` (configuration not stated)?
**A.** GI50 (786-0): > 100 µM (inactive); GI50 (A498): > 100 µM (inactive); GI50 (A549): > 100 µM (inactive); GI50 (ACHN): > 100 µM (inactive); GI50 (BT-549): > 100 µM (inactive); GI50 (CAKI-1): > 100 µM (inactive); GI50 (CCRF-CEM): > 100 µM (inactive); GI50 (COLO 205): > 100 µM (inactive); GI50 (DU-145): > 100 µM (inactive); GI50 (EKVX): > 100 µM (inactive); GI50 (HCT-116): > 100 µM (inactive); GI50 (HCT-15): > 100 µM; GI50 (HL-60): > 100 µM (inactive); GI50 (HOP-62): > 100 µM (inactive); GI50 (HOP-92): > 100 µM (inactive); GI50 (HT-29): > 100 µM (inactive); GI50 (Hs-578T): 28.5 µM (inactive); GI50 (IGROV-1): > 100 µM (inactive); GI50 (K562): > 100 µM (inactive); GI50 (KM12): > 100 µM (inactive); GI50 (LOX IMVI): > 100 µM (inactive); GI50 (M14): > 100 µM (inactive); GI50 (MCF7): > 100 µM (inactive); GI50 (MDA-MB-231): > 100 µM (inactive); GI50 (MDA-MB-435): > 100 µM (inactive); GI50 (MDA-N): > 100 µM (inactive); GI50 (MOLT-4): > 100 µM (inactive); GI50 (Malme-3M): > 100 µM (inactive); GI50 (NCI-H226): > 100 µM (inactive); GI50 (NCI-H23): > 100 µM (inactive); GI50 (NCI-H460): > 100 µM (inactive); GI50 (NCI-H522): > 100 µM (inactive); GI50 (NCI/ADR-RES): > 100 µM (inactive); GI50 (OVCAR-3): > 100 µM (inactive); GI50 (OVCAR-4): > 100 µM (inactive); GI50 (OVCAR-5): > 100 µM (inactive); GI50 (PC-3): > 100 µM (inactive); GI50 (RPMI-8226): > 100 µM (inactive); GI50 (RXF 393): > 100 µM (inactive); GI50 (SF-268): > 100 µM (inactive); GI50 (SF-539): > 100 µM (inactive); GI50 (SK-MEL-28): > 100 µM (inactive); GI50 (SK-MEL-2): > 100 µM (inactive); GI50 (SK-MEL-5): > 100 µM (inactive); GI50 (SK-OV-3): > 100 µM (inactive); GI50 (SN12C): > 100 µM (inactive); GI50 (SNB-19): > 100 µM (inactive); GI50 (SNB-75): > 100 µM (inactive); GI50 (SR): > 100 µM (inactive); GI50 (SW-620): > 100 µM (inactive); GI50 (T47D): > 100 µM (inactive); GI50 (TK-10): > 100 µM (inactive); GI50 (U-251): > 10 µM (inactive); GI50 (UACC-62): > 100 µM (inactive); GI50 (UO-31): > 100 µM (inactive)
